Target: human P2X7 (Homo sapiens (Human), UniProt Q99572)
Experiment: P2X7 antagonism in human PBMCs (IL-1β release after LPS + Bz-ATP, ELISA)
Assay type: cell-based
Conditions: test compound 10 μM

Chain of human P2X7 (Q99572 whole entry): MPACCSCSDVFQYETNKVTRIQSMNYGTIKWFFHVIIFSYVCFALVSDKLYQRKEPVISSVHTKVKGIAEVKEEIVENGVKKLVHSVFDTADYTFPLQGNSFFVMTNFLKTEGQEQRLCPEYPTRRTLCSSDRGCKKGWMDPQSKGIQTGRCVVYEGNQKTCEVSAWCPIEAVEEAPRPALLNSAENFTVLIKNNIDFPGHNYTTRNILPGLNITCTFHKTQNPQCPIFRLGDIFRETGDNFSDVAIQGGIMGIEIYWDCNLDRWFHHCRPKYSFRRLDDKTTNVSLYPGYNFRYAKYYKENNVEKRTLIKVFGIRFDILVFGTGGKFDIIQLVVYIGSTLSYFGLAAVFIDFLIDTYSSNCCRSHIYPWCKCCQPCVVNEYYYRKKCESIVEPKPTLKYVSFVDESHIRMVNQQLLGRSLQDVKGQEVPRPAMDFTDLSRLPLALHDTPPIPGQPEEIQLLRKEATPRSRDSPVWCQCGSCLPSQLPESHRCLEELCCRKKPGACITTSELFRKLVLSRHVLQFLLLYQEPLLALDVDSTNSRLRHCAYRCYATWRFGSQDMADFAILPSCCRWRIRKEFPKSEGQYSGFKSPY

Compound | PBMC 10 μM (% control) (human PBMCs) | PBMC 10 μM (% control) (LPS 30 ng/ml + 0.5 mM Bz-ATP)
CC1Cc2c(nnn2-c2ncc(F)cn2)CN1C(=O)c1cccc(Cl)c1Cl (stereo not shown) [Example 203, 5-[(2,3-Dichlorophenyl)carbonyl]-1-(5-fluoropyrimidin-2-yl)-6-methyl-4,5,6,7-tetrahydro-1H-[1,2,3]triazolo[4,5-c]pyridine] | 0.6 % control | –
Cc1c(C(=O)N2Cc3nnn(-c4ncc(F)cn4)c3CC2C)cccc1C(F)(F)F (stereo not shown) [Example 206, 1-(5-Fluoropyrimidin-2-yl)-6-methyl-5-{[2-methyl-3-(trifluoromethyl)phenyl]carbonyl}-4,5,6,7-tetrahydro-1H-[1,2,3]triazolo[4,5-c]pyridine] | −1.0 % control | –
CC1Cc2c(nnn2-c2cnccn2)CN1C(=O)c1cccc(C(F)(F)F)c1Cl (stereo not shown) [Example 209, 5-{[2-Chloro-3-(trifluoromethyl)phenyl]carbonyl}-6-methyl-1-pyrazin-2-yl-4,5,6,7-tetrahydro-1H-[1,2,3]triazolo[4,5-c]pyridine] | −1.0 % control | –
CC1Cc2c(nnn2-c2ncc(F)cn2)CN1C(=O)c1ccc(F)c(Cl)c1Cl (stereo not shown) [Example 213, 5-[(2,3-Dichloro-4-fluorophenyl)carbonyl]-1-(5-fluoropyrimidin-2-yl)-6-methyl-4,5,6,7-tetrahydro-1H-[1,2,3]triazolo[4,5-c]pyridine] | 0.3 % control | –
CC1Cc2c(nnn2-c2ncc(F)cn2)CN1C(=O)c1ccc(Cl)c(F)c1Cl (stereo not shown) [Example 216, 5-[(2,4-Dichloro-3-fluorophenyl)carbonyl]-1-(5-fluoropyrimidin-2-yl)-6-methyl-4,5,6,7-tetrahydro-1H-[1,2,3]triazolo[4,5-c]pyridine] | 0.6 % control | –
C[C@H]1Cc2c(nnn2-c2ncc(F)cn2)CN1C(=O)c1ccnc(C(F)(F)F)c1F [Example 228, (S)-(3-fluoro-2-(trifluoromethyl)pyridin-4-yl)(1-(5-fluoropyrimidin-2-yl)-6-methyl-6,7-dihydro-1H-[1,2,3]triazolo[4,5-c]pyridin-5(4H)-yl)methanone] | −1.1 % control | –
Cc1nc(-n2nnc3c2CCN(C(=O)c2cccc(C(F)(F)F)c2Cl)C3C)ncc1F (stereo not shown) [Example 230, (2-chloro-3-(trifluoromethyl)phenyl)(1-(5-fluoro-4-methylpyrimidin-2-yl)-4-methyl-6,7-dihydro-1H-[1,2,3]triazolo[4,5-c]pyridin-5(4H)-yl)methanone] | 2.9 % control | –
Cc1cc(C)nc(-n2nnc3c2CCN(C(=O)c2cccc(Cl)c2Cl)C3C)c1 (stereo not shown) [Example 231, (2,3-dichlorophenyl)(1-(4,6-dimethylpyridin-2-yl)-4-methyl-6,7-dihydro-1H-[1,2,3]triazolo[4,5-c]pyridin-5(4H)-yl)methanone] | −4.8 % control | –
CC1c2nnn(-c3cncnc3)c2C=CN1C(=O)c1cccc(C(F)(F)F)c1Cl (stereo not shown) [Example 236, (2-Chloro-3-(trifluoromethyl)phenyl)(4-methyl-1-(pyrimidin-5-yl)-1H-[1,2,3]triazolo[4,5-c]pyridin-5(4H)-yl)methanone] | 9.3 % control | –
CC1Cc2c(nnn2-c2ccc(F)cc2)C(C)N1C(=O)c1cccc(Cl)c1Cl (stereo not shown) [Example 242, (2,3-Dichlorophenyl)(1-(4-fluorophenyl)-4,6-dimethyl-6,7-dihydro-1H-[1,2,3]triazolo[4,5-c]pyridin-5(4H)-yl)methanone] | −3.4 % control | –
CC1CN(C(=O)c2cccc(Cl)c2Cl)Cc2nnn(-c3ccccc3)c21 (stereo not shown) [Example 244, (2,3-Dichlorophenyl)(7-methyl-1-phenyl-6,7-dihydro-1H-[1,2,3]triazolo[4,5-c]pyridin-5(4H)-yl)methanone] | −2.3 % control | –
CC1CN(C(=O)c2cccc(C(F)(F)F)c2Cl)Cc2nnn(-c3ccccc3)c21 (stereo not shown) [Example 245, (2-Chloro-3-(trifluoromethyl)phenyl)(7-methyl-1-phenyl-6,7-dihydro-1H-[1,2,3]triazolo[4,5-c]pyridin-5(4H)-yl)methanone] | −7.3 % control | –
CC1CN(C(=O)c2cccc(C(F)(F)F)c2Cl)Cc2nnn(-c3ccc(F)cc3)c21 (stereo not shown) [Example 246, (2-Chloro-3-(trifluoromethyl)phenyl)(1-(4-fluorophenyl)-7-methyl-6,7-dihydro-1H-[1,2,3]triazolo[4,5-c]pyridin-5(4H)-yl)methanone] | −3.1 % control | –
CC1CN(C(=O)c2cccc(Cl)c2Cl)Cc2nnn(-c3ccc(F)cc3)c21 (stereo not shown) [Example 247, (2,3-Dichlorophenyl)(1-(4-fluorophenyl)-7-methyl-6,7-dihydro-1H-[1,2,3]triazolo[4,5-c]pyridin-5(4H)-yl)methanone] | −0.8 % control | –
Cc1cc(C)nc(-n2nnc3c2CCN(C(=O)c2cccc(C(F)(F)F)c2Cl)C3C)n1 (stereo not shown) [Example 253, (2-Chloro-3-(trifluoromethyl)phenyl)(1-(4,6-dimethylpyrimidin-2-yl)-4-methyl-6,7-dihydro-1H-[1,2,3]triazolo[4,5-c]pyridin-5(4H)-yl)methanone] | −2.6 % control | −2.6 % control
O=C(c1ccc(Cl)cc1Cl)N1CCc2c(nnn2-c2ncccn2)C1 [Example 257, (2,4-dichlorophenyl)(1-(pyrimidin-2-yl)-6,7-dihydro-1H-[1,2,3]triazolo[4,5-c]pyridin-5(4H)-yl)methanone] | 7.1 % control | –

Further lines, with some results ahead:

PBMC 10 μM (% control) (human PBMCs) | Compound | PBMC 10 μM (% control) (LPS 30 ng/ml + 0.5 mM Bz-ATP)
0.8 % control | CC1Cc2c(nnn2-c2cc[nH]n2)CN1C(=O)c1cccc(C(F)(F)F)c1Cl (stereo not shown) [Example 210, (2-chloro-3-(trifluoromethyl)phenyl)(6-methyl-1-(1H-pyrazol-3-yl)-6,7-dihydro-1H-[1,2,3]triazolo[4,5-c]pyridin-5(4H)-yl)methanone] | –
−1.0 % control | Cc1ccnc(-n2nnc3c2CCN(C(=O)c2cccc(Cl)c2Cl)C3C)n1 (stereo not shown) [Example 225, (2,3-dichlorophenyl)(4-methyl-1-(4-methylpyrimidin-2-yl)-6,7-dihydro-1H-[1,2,3]triazolo[4,5-c]pyridin-5(4H)-yl)methanone] | –
−0.1 % control | Cc1cccc(-n2nnc3c2CCN(C(=O)c2cccc(Cl)c2Cl)C3C)n1 (stereo not shown) [Example 233, (2,3-dichlorophenyl)(4-methyl-1-(6-methylpyridin-2-yl)-6,7-dihydro-1H-[1,2,3]triazolo[4,5-c]pyridin-5(4H)-yl)methanone] | –
−5.1 % control | Cc1ccnc(-n2nnc3c2CCN(C(=O)c2cccc(Cl)c2Cl)C3C)c1 (stereo not shown) [Example 237, (2,3-dichlorophenyl)(4-methyl-1-(4-methylpyridin-2-yl)-6,7-dihydro-1H-[1,2,3]triazolo[4,5-c]pyridin-5(4H)-yl)methanone] | –
−4.1 % control | CC1CN(C(=O)c2cccc(C(F)(F)F)c2Cl)C(C)c2nnn(-c3ccc(F)cc3)c21 (stereo not shown) [Example 238, (2-Chloro-3-(trifluoromethyl)phenyl)(1-(4-fluorophenyl)-4,7-dimethyl-6,7-dihydro-1H-[1,2,3]triazolo[4,5-c]pyridin-5(4H)-yl)methanone] | –
−8.9 % control | CC1Cc2c(nnn2-c2ccccc2)C(C)N1C(=O)c1cccc(C(F)(F)F)c1Cl (stereo not shown) [Example 240, (2-Chloro-3-(trifluoromethyl)phenyl)(4,6-dimethyl-1-phenyl-6,7-dihydro-1H-[1,2,3]triazolo[4,5-c]pyridin-5(4H)-yl)methanone] | –
6.5 % control | CC1CN(C(=O)c2cccc(C(F)(F)F)c2Cl)C(C)c2nnn(-c3ccccc3)c21 (stereo not shown) [Example 241, (2-Chloro-3-(trifluoromethyl)phenyl)(4,7-dimethyl-1-phenyl-6,7-dihydro-1H-[1,2,3]triazolo[4,5-c]pyridin-5(4H)-yl)methanone] | –
1.0 % control | CC1Cc2c(nnn2-c2ccc(F)cc2)C(C)N1C(=O)c1cccc(C(F)(F)F)c1Cl (stereo not shown) [Example 243, (2-Chloro-3-(trifluoromethyl)phenyl)(1-(4-fluorophenyl)-4,6-dimethyl-6,7-dihydro-1H-[1,2,3]triazolo[4,5-c]pyridin-5(4H)-yl)methanone] | –
−1.3 % control | CC1c2nnn(-c3ncco3)c2CCN1C(=O)c1cccc(C(F)(F)F)c1Cl (stereo not shown) [Example 250, (2-Chloro-3-(trifluoromethyl)phenyl)(4-methyl-1-(oxazol-2-yl)-6,7-dihydro-1H-[1,2,3]triazolo[4,5-c]pyridin-5(4H)-yl)methanone] | –
−0.8 % control | Cc1ccnc(-n2nnc3c2CCN(C(=O)c2cccc(C(F)(F)F)c2Cl)C3C)n1 (stereo not shown) [Example 252, (2-Chloro-3-(trifluoromethyl)phenyl)(4-methyl-1-(4-methylpyrimidin-2-yl)-6,7-dihydro-1H-[1,2,3]triazolo[4,5-c]pyridin-5(4H)-yl)methanone] | –
0.9 % control | CCc1cccnc1-n1nnc2c1CCN(C(=O)c1cccc(C(F)(F)F)c1Cl)C2C (stereo not shown) [Example 254, (2-Chloro-3-(trifluoromethyl)phenyl)(1-(3-ethylpyridin-2-yl)-4-methyl-6,7-dihydro-1H-[1,2,3]triazolo[4,5-c]pyridin-5(4H)-yl)methanone] | –
−3.2 % control | CCOc1cccnc1-n1nnc2c1CCN(C(=O)c1cccc(C(F)(F)F)c1Cl)C2C (stereo not shown) [Example 258, (2-Chloro-3-(trifluoromethyl)phenyl)(1-(3-ethoxypyridin-2-yl)-4-methyl-6,7-dihydro-1H-[1,2,3]triazolo[4,5-c]pyridin-5(4H)-yl)methanone] | –
−3.5 % control | Cc1cccnc1-n1nnc2c1CCN(C(=O)c1cccc(C(F)(F)F)c1Cl)C2C (stereo not shown) [Example 259, (2-Chloro-3-(trifluoromethyl)phenyl)(4-methyl-1-(3-methylpyridin-2-yl)-6,7-dihydro-1H-[1,2,3]triazolo[4,5-c]pyridin-5(4H)-yl)methanone] | –
1.4 % control | COc1cccnc1-n1nnc2c1CCN(C(=O)c1cccc(C(F)(F)F)c1Cl)C2C (stereo not shown) [Example 260, (2-Chloro-3-(trifluoromethyl)phenyl)(1-(3-methoxypyridin-2-yl)-4-methyl-6,7-dihydro-1H-[1,2,3]triazolo[4,5-c]pyridin-5(4H)-yl)methanone] | –
